Activity calls are given as the source filed them. No cut-off for these calls is given here.
What was measured:
[1] = biological target: Epidermal growth factor receptor (Homo sapiens) (UniProt P00533); assay: Inhibition of EGFR phosphorylation at Y1045 residues in human MCF7 cells after 8 hrs by Western blot analysis; format: cell-based
MCF7 [2] = assay: Induction of apoptosis in human MCF7 cells assessed as early apoptotic cells at 2 uM after 48 hrs by Annexin-V-FITC/propidium iodide staining based flow cytometry (reference value: 3.05%); format: functional
MDA-MB-231 [3] = assay: Antimigratory activity against human MDA-MB-231 cells assessed as reduction in scratch healing after 72 hrs by microscopy based scratch wound assay; format: functional, cell-based
MCF7 [4] = assay: Cell cycle arrest in human MCF7 cells assessed as accumulation at G1 phase at 3 uM after 24 hrs by propidium iodide/RNase A staining-based flow cytometric analysis (reference value: 52.21%); format: functional
MDA-MB-231 [5] = assay: Cell cycle arrest in human MDA-MB-231 cells assessed as accumulation at G2 phase at 6 uM after 24 hrs by propidium iodide/RNase A staining-based flow cytometric analysis (reference value: 27.76%); format: functional
MCF7 [6] = assay: Cell cycle arrest in human MCF7 cells assessed as accumulation at G2 phase at 3 uM after 24 hrs by propidium iodide/RNase A staining-based flow cytometric analysis (reference value: 30.62%); format: functional
MDA-MB-231 [7] = assay: Effect on total PI3K protein level in human MDA-MB-231 cells up to 12 uM after 8 hrs by Western blot analysis; format: ADME, cell-based; settings: mda-mb-231, 8 h
MCF7 [8] = assay: Effect on total EGFR protein level in human MCF7 cells up to 12 uM after 8 hrs by Western blot analysis; format: ADME, cell-based; settings: mcf7, 8 h
MCF7 [9] = assay: Effect on total PI3K protein level in human MCF7 cells up to 12 uM after 8 hrs by Western blot analysis; format: ADME, cell-based; settings: mcf7, 8 h
MCF7 [10] = assay: Induction of apoptosis in human MCF7 cells after 48 hrs by Annexin-V-FITC/propidium iodide staining based flow cytometry; format: functional, cell-based
MDA-MB-231 [11] = assay: Cell cycle arrest in human MDA-MB-231 cells assessed as accumulation at S phase at 12 uM after 24 hrs by propidium iodide/RNase A staining-based flow cytometric analysis (reference value: 23.07%); format: functional
MDA-MB-231 [12] = assay: Cell cycle arrest in human MDA-MB-231 cells assessed as accumulation at G1 phase at 3 uM after 24 hrs by propidium iodide/RNase A staining-based flow cytometric analysis (reference value: 49.17%); format: functional
MDA-MB-231 [13] = assay: Effect on total AKT protein level in human MDA-MB-231 cells up to 12 uM after 8 hrs by Western blot analysis; format: ADME, cell-based; settings: mda-mb-231, 8 h
[14] = biological target: Epidermal growth factor receptor (Homo sapiens) (UniProt P00533); assay: Inhibition of EGFR in human MDA-MB-231 cells assessed as reduction in phosphorylated AKT expression after 8 hrs by Western blot analysis; format: cell-based
MCF7 [15] = assay: Induction of apoptosis in human MCF7 cells assessed as viable cells at 6 uM after 48 hrs by Annexin-V-FITC/propidium iodide staining based flow cytometry (reference value: 91.1%); format: functional; settings: MCF7, 48 h, read-out: Activity
[16] = biological target: Epidermal growth factor receptor (Homo sapiens) (UniProt P00533); assay: Inhibition of EGFR phosphorylation at Y1045 residues in human MDA-MB-231 cells after 8 hrs by Western blot analysis; format: cell-based
MGC-803 = assay: Cytotoxicity against human MGC803 cells assessed as reduction in cell viability after 72 hrs by MTT assay; format: functional, cell-based; settings: MGC-803, 72 h
MDA-MB-231 [17] = assay: Induction of apoptosis in human MDA-MB-231 cells assessed as increase in Bax expression levels at 3 to 12 uM after 48 hrs by Western blot analysis; format: functional, cell-based
MDA-MB-231 [18] = assay: Induction of apoptosis in human MDA-MB-231 cells after 48 hrs by Annexin-V-FITC/propidium iodide staining based flow cytometry; format: functional, cell-based
MDA-MB-231 [19] = assay: Induction of apoptosis in human MDA-MB-231 cells assessed as increase in nuclear lysis up to 8 uM after 48 hrs by DAPI staining-based fluorescence microscopic method; format: functional, cell-based
MCF7 [20] = assay: Antiproliferative activity against human MCF7 cells assessed as reduction in cell viability up to 32 uM by MTT assay; format: functional, cell-based; settings: TDE = time-dependent effect
MCF7 [21] = assay: Induction of apoptosis in human MCF7 cells assessed as early apoptotic cells at 6 uM after 48 hrs by Annexin-V-FITC/propidium iodide staining based flow cytometry (reference value: 3.05%); format: functional
MDA-MB-231 [22] = assay: Induction of apoptosis in human MDA-MB-231 cells assessed as late apoptotic cells at 2 uM after 48 hrs by Annexin-V-FITC/propidium iodide staining based flow cytometry (reference value: 2.38%); format: functional
[23] = biological target: Epidermal growth factor receptor (Homo sapiens) (UniProt P00533); assay: Inhibition of EGFR phosphorylation at Y1068 residues in human MCF7 cells after 8 hrs by Western blot analysis; format: cell-based
MCF7 [24] = assay: Induction of apoptosis in human MCF7 cells assessed as increase in nuclear lysis up to 8 uM after 48 hrs by DAPI staining-based fluorescence microscopic method; format: functional, cell-based
MCF7 [25] = assay: Antiproliferative activity against human MCF7 cells assessed as reduction in cell viability after 24 to 72 hrs by MTT assay; format: functional, cell-based
PC-3 = assay: Cytotoxicity against human PC3 cells assessed as reduction in cell viability after 72 hrs by MTT assay; format: functional, cell-based; settings: PC-3, 72 h
MCF7 [26] = assay: Induction of apoptosis in human MCF7 cells assessed as late apoptotic cells at 2 uM after 48 hrs by Annexin-V-FITC/propidium iodide staining based flow cytometry (reference value: 4.28%); format: functional
MDA-MB-231 [27] = assay: Antiproliferative activity against human MDA-MB-231 cells assessed as reduction in cell viability after 24 to 72 hrs by MTT assay; format: functional, cell-based
MCF7 [28] = assay: Induction of apoptosis in human MCF7 cells assessed as increase in Bax expression levels at 3 to 12 uM after 48 hrs by Western blot analysis; format: functional, cell-based
MCF7 [29] = assay: Induction of apoptosis in human MCF7 cells assessed as increase in P53 expression at 3 to 12 uM after 48 hrs by Western blot analysis; format: functional, cell-based
MDA-MB-231 [30] = assay: Cell cycle arrest in human MDA-MB-231 cells assessed as accumulation at G2 phase at 12 uM after 24 hrs by propidium iodide/RNase A staining-based flow cytometric analysis (reference value: 27.76%); format: functional
MCF7 [31] = assay: Cell cycle arrest in human MCF7 cells assessed as accumulation at G2 phase at 6 uM after 24 hrs by propidium iodide/RNase A staining-based flow cytometric analysis (reference value: 30.62%); format: functional
[32] = biological target: Epidermal growth factor receptor (Homo sapiens) (UniProt P00533); assay: Inhibition of EGFR in human MCF7 cells assessed as reduction in phosphorylated AKT expression after 8 hrs by Western blot analysis; format: cell-based
[33] = biological target: Epidermal growth factor receptor (Homo sapiens) (UniProt P00533); assay: Inhibition of EGFR phosphorylation at Y992 residues in human MDA-MB-231 cells after 8 hrs by Western blot analysis; format: cell-based
MDA-MB-231 [34] = assay: Induction of apoptosis in human MDA-MB-231 cells assessed as downregulation of Bcl-2 protein expression at 3 to 12 uM after 48 hrs by Western blot analysis; format: functional, cell-based
MCF7 [35] = assay: Inhibition of colony formation in human MCF7 cells at 9 uM after 7 days by crystal violet staining based microscopic analysis; format: functional, cell-based
HGC-27 = assay: Cytotoxicity against human HGC27 cells assessed as reduction in cell viability after 72 hrs by MTT assay; format: functional, cell-based; settings: HGC-27, 72 h
MCF7 [36] = assay: Induction of apoptosis in human MCF7 cells assessed as necrotic cells at 2 uM after 48 hrs by Annexin-V-FITC/propidium iodide staining based flow cytometry (reference value: 1.57%); format: functional

Chain of Epidermal growth factor receptor (Homo sapiens) (P00533 whole entry): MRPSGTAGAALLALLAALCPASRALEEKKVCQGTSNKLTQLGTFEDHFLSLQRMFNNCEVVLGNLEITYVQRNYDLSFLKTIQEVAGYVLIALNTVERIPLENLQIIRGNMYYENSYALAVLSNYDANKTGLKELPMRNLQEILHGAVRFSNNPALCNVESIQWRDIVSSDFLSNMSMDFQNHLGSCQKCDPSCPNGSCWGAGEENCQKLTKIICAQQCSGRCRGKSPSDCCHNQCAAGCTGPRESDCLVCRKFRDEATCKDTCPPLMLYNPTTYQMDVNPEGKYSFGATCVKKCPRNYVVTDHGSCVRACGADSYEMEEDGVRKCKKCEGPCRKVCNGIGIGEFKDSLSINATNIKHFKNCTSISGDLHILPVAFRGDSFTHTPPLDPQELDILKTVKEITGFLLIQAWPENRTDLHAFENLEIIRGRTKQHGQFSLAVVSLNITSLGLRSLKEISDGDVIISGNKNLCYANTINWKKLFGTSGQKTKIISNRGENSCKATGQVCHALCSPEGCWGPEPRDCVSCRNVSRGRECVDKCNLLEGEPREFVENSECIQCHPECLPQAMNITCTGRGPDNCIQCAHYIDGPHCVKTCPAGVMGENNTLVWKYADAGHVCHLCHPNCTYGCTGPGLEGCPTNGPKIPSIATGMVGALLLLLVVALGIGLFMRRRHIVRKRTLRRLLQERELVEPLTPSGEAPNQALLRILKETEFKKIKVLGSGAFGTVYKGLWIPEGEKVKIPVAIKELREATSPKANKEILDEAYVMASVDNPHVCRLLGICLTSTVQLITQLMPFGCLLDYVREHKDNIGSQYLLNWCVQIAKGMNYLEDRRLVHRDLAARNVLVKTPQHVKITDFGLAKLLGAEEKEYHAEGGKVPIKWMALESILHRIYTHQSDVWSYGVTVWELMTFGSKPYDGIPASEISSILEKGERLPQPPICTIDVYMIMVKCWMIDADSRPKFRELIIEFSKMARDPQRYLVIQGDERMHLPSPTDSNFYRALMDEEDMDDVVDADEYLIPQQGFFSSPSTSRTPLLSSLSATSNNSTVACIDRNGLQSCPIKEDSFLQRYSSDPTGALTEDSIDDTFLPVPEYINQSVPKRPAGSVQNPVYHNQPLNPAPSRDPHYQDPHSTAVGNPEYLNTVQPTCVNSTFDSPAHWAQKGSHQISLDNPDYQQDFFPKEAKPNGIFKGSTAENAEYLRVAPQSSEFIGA

## FC(F)(F)c1ccc(CSc2nc(Nc3ccc(C(F)(F)F)cc3)c3ccccc3n2)cc1
[1]
  inhibition: Dose-dependent effect
MCF7 [2]
  Activity: 11.4%
MDA-MB-231 [3]
  Activity: Dose-dependent effect
MCF7 [4]
  Activity: 59.18%
MDA-MB-231 [5]
  Activity: 21.98%
MCF7 [6]
  Activity: 20.38%
MDA-MB-231 [7]
  Activity: Non-Toxic
MCF7 [8]
  Activity: Non-Toxic
MCF7 [9]
  Activity: Non-Toxic
MCF7 [10]
  Activity: Dose-dependent effect
MDA-MB-231 [11]
  Activity: 18.77%
MDA-MB-231 [12]
  Activity: 53%
MDA-MB-231 [13]
  Activity: Non-Toxic
[14]
  inhibition: Dose-dependent effect
MCF7 [15]
  viability at 6 µM: 70.5%
[16]
  inhibition: Dose-dependent effect
MGC-803
  IC50: 6.17 µM
MDA-MB-231 [17]
  Activity: Active
MDA-MB-231 [18]
  Activity: Dose-dependent effect
MDA-MB-231 [19]
  Activity: Active
MCF7 [20]
  Activity: Tde
MCF7 [21]
  Activity: 17.1%
MDA-MB-231 [22]
  Activity: 7.92%
[23]
  inhibition: Dose-dependent effect
MCF7 [24]
  Activity: Active
MCF7 [25]
  Activity: Dose-dependent effect
PC-3
  IC50: 7.88 µM
MCF7 [26]
  Activity: 4.26%
MDA-MB-231 [27]
  Activity: Dose-dependent effect
MCF7 [28]
  Activity: Active
MCF7 [29]
  Activity: Active
MDA-MB-231 [30]
  Activity: 11.69%
MCF7 [31]
  Activity: 15.43%
[32]
  inhibition: Dose-dependent effect
[33]
  inhibition: Dose-dependent effect
MDA-MB-231 [34]
  Activity: Active
MCF7 [35]
  growth inhibition (GI): Active
HGC-27
  IC50: 7.56 µM
MCF7 [36]
  Activity: 3.28%
